Results as given in patent publication US11033574B2, “Method for treating schizophrenia” (MiZ Company Limited, priority 2018, dated 2021).

System: schizophrenia
Procedure: At the initiation of hydrogen gas inhalation, a drug therapy with Abilify (intramuscular injection, 400 mg/month, once) and Lexotan tablets (oral administration, 6 mg/day, 3 times per day) was carried out.
Conditions of hydrogen gas inhalation were as follows:
For 40 days after initiation of inhalation: once per day, 70 mL/minute;
The subsequent 1 month: 2 hours per day, 70 mL/minute, hydrogen gas concentration: 3.0 to 4.0%;
The subsequent 4 months: 2 hours per day, 140 mL/minute, hydrogen gas concentration: 6.0 to 7.0%;
The subsequent 4 months: 6 hours per day, 280 mL/minute, hydrogen gas concentration: 6.0 to 7.0% (two hydrogen inhalers were used).
Thereafter, the patient was allowed to inhale hydrogen gas (6.0 to 7.0%, 280 mL/minute) for 6 hours/day, continuously for 9 months.

[1] = about 10 months after initiation of hydrogen inhalation

[HH] [hydrogen gas]
time for which injection of a medicine (once a month) was continued after initiation of hydrogen inhalation, thereafter stopped (Abilify intramuscular injection, 400 mg/month): 8 months | time after initiation of hydrogen inhalation at which administration of the oral medicine was terminated (Lexotan tablets, oral, 6 mg/day, hydrogen once per day, 70 mL/minute): Ten | disease-state in the period during which hydrogen inhalation was continued [1]: stably maintained | phase of the disease [1]: recovery phase | time after initiation of inhalation when use of the sleeping pill was stopped (brotizolam tablet, 0.25 mg/day): About 6 months | time after initiation of inhalation when the patient started to fall asleep without taking the sleeping pill (brotizolam tablet, 0.25 mg/day, every day at initiation): about 2 months | value of the patient in the examination (examination in January of 2019): the same as in a healthy person | disease state according to medical examination during an office visit (further 9 months of hydrogen gas 6.0 to 7.0%, 280 mL/minute, 6 hours/day): stable | recurrence after inhalation of hydrogen gas was stopped (inhalation stopped in March of 2019): no recurrence occurred | consecutive symptom, hallucination (patient, schizophrenia onset 13 years ago, on Abilify and Lexotan, after initiation of hydrogen inhalation, 3.0 to 6.0%): disappeared
